Like-named read-outs stand apart in the source and are kept apart here.
Key:
[1] = biological target: T1, hCA II (Homo sapiens, UniProt P00918); assay: stopped flow CO2 hydrase assay; format: biochemical; conditions: mean from 3 assays
T1 construct: made in house
Description: Carbonic anhydrase inhibition assay
The carbonic anhydrase catalyzed CO2 hydration actions for the quinazoline-based carboxylic acid derivatives (6a-c, 7a-c and 8a-c) were assayed utilizing an instrument of Applied Photophysics stopped-flow, as described previously. The enzymes are recombinant proteins prepared in our lab. Phenol red (at a concentration of 0.2 mM) has been used as indicator, working at the absorbance maximum of 557 nm, with 20 mM Hepes (pH 7.5) as buffer, and 20 mM Na2SO4 (for maintaining constant the ionic strength), following the initial rates of the CA- […]
1.7 to 17 mM for the determination of the kinetic parameters and inhibition constants. For each inhibitor at least six traces of the initial 5-10% of the reaction have been used for determining the initial velocity. The uncatalyzed rates were determined in the same manner and subtracted from the total observed rates. Stock solutions of inhibitor (0.1 mM) were prepared in distilled-deionized water and dilutions up to 0.01 nM were done thereafter with the assay buffer. Inhibitor and enzyme solutions were preincubated together for 15 min at room temperature prior to assay, in order to allow for the formation of the E-I complex. The inhibition constants were obtained by non-linear least-squares methods using PRISM 3 and the Cheng-Prusoff equation, and represent the mean from at least three different determinations.

[2] = system: CCRF-CEM; assay: NCI SRB assay; format: cell-based, human; conditions: for GI50 / TGI / CC50: 5-dose; for CC50: read-out: LC50 (the source's name)
[3] = system: HL-60(TB); assay: NCI SRB assay; format: cell-based, human; conditions: for CC50: read-out: LC50 (the source's name)
[4] = system: K-562; assay: NCI SRB assay; format: cell-based, human; conditions: for CC50: read-out: LC50 (the source's name)
[5] = system: HOP-62; assay: NCI SRB assay; format: cell-based, human
[6] = system: HOP-92; assay: NCI SRB assay; format: cell-based, human; conditions: for CC50: read-out: LC50 (the source's name)
[7] = system: NCI-H23; assay: NCI SRB assay; format: cell-based, human
[8] = system: NCI-H322M; assay: NCI SRB assay; format: cell-based, human; conditions: for CC50: read-out: LC50 (the source's name)
[9] = system: NCI-H522; assay: NCI SRB assay; format: cell-based, human
[10] = system: HCT-116; assay: NCI SRB assay; format: cell-based, human; conditions: for CC50: read-out: LC50 (the source's name)
[11] = system: SF-268; assay: NCI SRB assay; format: cell-based, human; conditions: for CC50: read-out: LC50 (the source's name)
[12] = system: SF-295; assay: NCI SRB assay; format: cell-based, human
[13] = system: SNB-19; assay: NCI SRB assay; format: cell-based, human; conditions: for CC50: read-out: LC50 (the source's name)
[14] = system: SNB-75; assay: NCI SRB assay; format: cell-based, human; conditions: for CC50: read-out: LC50 (the source's name)
[15] = system: M14; assay: NCI SRB assay; format: cell-based, human; conditions: Homo sapiens, M14, M14, 5-dose; read-out: LC50 (the source's name)
[16] = Homo sapiens, K562, K-562, 5-dose
[17] = Homo sapiens, HOP-92, HOP-92, 5-dose
[18] = Homo sapiens, NCI-H522, NCI-H522, 5-dose
[19] = Homo sapiens, SNB-19, SNB-19, 5-dose
[20] = Homo sapiens, SNB-75, SNB-75, 5-dose

SMILES: Cc1ccc(-c2nc(Nc3ccccc3C(=O)O)c3ccccc3n2)cc1 [6b, 2-((2-(p-Tolyl)quinazolin-4-yl)amino)benzoic acid]
- Ki [1]: 48.2 µM
- GI% ([2]; 10 μM): 87%
- Growth Percent ([2]; 1.00E-5 Molar): 12.80%
- GI50 [2]: 5.7 µM
- TGI [2]: <100 µM
- TGI ([2]; listed as D - 835857): > 1.00E-4 Molar
- CC50 [2]: < 100 µM
- GI50 ([2]; Homo sapiens): 5.72 µM
- CC50 ([2]; Homo sapiens): > 100 µM
- GI% ([3]; HL-60(TB), 10 μM): 82%
- Growth Percent ([3]; HL-60(TB), 1.00E-5 Molar): 17.80%
- TGI ([3]; HL-60(TB), 5-dose): 75.4 µM
- TGI ([3]; HL-60(TB), 5-dose, listed as D - 835857): 7.54E-5 Molar
- CC50 ([3]; HL-60(TB), 5-dose): < 100 µM
- CC50 ([3]; Homo sapiens, HL-60, HL-60(TB), 5-dose): > 100 µM
- GI50 ([3]; Homo sapiens, HL-60(TB), 5-dose): 12.9 µM
- GI50 [4, 16]: 7.05 µM
- CC50 [4, 16]: > 100 µM
- GI% ([4]; K-562, 10 μM): 82%
- Growth Percent ([4]; K-562, 1.00E-5 Molar): 17.64%
- TGI ([4]; K-562, 5-dose): <100 µM
- TGI ([4]; K-562, 5-dose, listed as D - 835857): > 1.00E-4 Molar
- CC50 ([4]; K-562, 5-dose): < 100 µM
- GI% ([5]; HOP-62, 10 μM): 72%
- Growth Percent ([5]; HOP-62, 1.00E-5 Molar): 28.29%
- LC50 ([5]; HOP-62, 5-dose): < 100 µM
- TGI ([5]; HOP-62, 5-dose): 33.7 µM
- TGI ([5]; HOP-62, 5-dose, listed as D - 835857): 3.37E-5 Molar
- LC50 ([5]; Homo sapiens, HOP-62, HOP-62, 5-dose): > 100 µM
- GI50 ([5]; Homo sapiens, HOP-62, 5-dose): 10.8 µM
- GI% ([6]; HOP-92, 10 μM): 120%
- Growth Percent ([6]; HOP-92, 1.00E-5 Molar): -19.52%
- GI50 ([6]; HOP-92, 5-dose): 2.9 µM
- TGI ([6]; HOP-92, 5-dose): 29.3 µM
- TGI ([6]; HOP-92, 5-dose, listed as D - 835857): 2.93E-5 Molar
- CC50 ([6]; HOP-92, 5-dose): < 100 µM
- GI50 [6, 17]: 2.85 µM
- CC50 [6, 17]: > 100 µM
- LC50 ([7]; Homo sapiens, NCI-H23, NCI-H23, 5-dose): > 100 µM
- GI50 ([7]; Homo sapiens, NCI-H23, 5-dose): 15.7 µM
- GI% ([7]; NCI-H23, 10 μM): 104%
- Growth Percent ([7]; NCI-H23, 1.00E-5 Molar): -4.11%
- LC50 ([7]; NCI-H23, 5-dose): < 100 µM
- TGI ([7]; NCI-H23, 5-dose): 44.4 µM
- TGI ([7]; NCI-H23, 5-dose, listed as D - 835857): 4.44E-5 Molar
- GI% ([8]; 10 μM): 66%
- Growth Percent ([8]; 1.00E-5 Molar): 33.77%
- TGI ([8]; 5-dose): <100 µM
- TGI ([8]; 5-dose, listed as D - 835857): > 1.00E-4 Molar
- CC50 ([8]; 5-dose): < 100 µM
- GI50 ([8]; Homo sapiens, 5-dose): 13.6 µM
- CC50 ([8]; Homo sapiens, 5-dose): > 100 µM
- GI50 [9, 18]: 4.35 µM
- LC50 [9, 18]: > 100 µM
- GI% ([9]; NCI-H522, 10 μM): 67%
- Growth Percent ([9]; NCI-H522, 1.00E-5 Molar): 33.17%
- GI50 ([9]; NCI-H522, 5-dose): 4.4 µM
- LC50 ([9]; NCI-H522, 5-dose): < 100 µM
- TGI ([9]; NCI-H522, 5-dose): 27.1 µM
- TGI ([9]; NCI-H522, 5-dose, listed as D - 835857): 2.71E-5 Molar
- GI% ([10]; HCT-116, 10 μM): 93%
- Growth Percent ([10]; HCT-116, 1.00E-5 Molar): 6.70%
- TGI ([10]; HCT-116, 5-dose): 36.1 µM
- TGI ([10]; HCT-116, 5-dose, listed as D - 835857): 3.61E-5 Molar
- CC50 ([10]; HCT-116, 5-dose): < 100 µM
- CC50 ([10]; Homo sapiens, HCT-116, HCT-116, 5-dose): > 100 µM
- GI50 ([10]; Homo sapiens, HCT-116, 5-dose): 10.1 µM
- CC50 ([11]; Homo sapiens, SF-268, SF-268, 5-dose): > 100 µM
- GI50 ([11]; Homo sapiens, SF-268, 5-dose): 14.3 µM
- GI% ([11]; SF-268, 10 μM): 89%
- Growth Percent ([11]; SF-268, 1.00E-5 Molar): 11.24%
- TGI ([11]; SF-268, 5-dose): <100 µM
- TGI ([11]; SF-268, 5-dose, listed as D - 835857): > 1.00E-4 Molar
- CC50 ([11]; SF-268, 5-dose): < 100 µM
- GI50 ([12]; Homo sapiens, SF-295, 5-dose): 7.04 µM
- CC50 ([12]; Homo sapiens, SF-295, 5-dose, read-out: LC50 (the source's name)): 86 µM
- GI% ([12]; SF-295, 10 μM): 94%
- Growth Percent ([12]; SF-295, 1.00E-5 Molar): 5.81%
- TGI ([12]; SF-295, 5-dose): 27.0 µM
- TGI ([12]; SF-295, 5-dose, listed as D - 835857): 2.70E-5 Molar
- GI50 [13, 19]: 8.09 µM
- CC50 [13, 19]: > 100 µM
- GI% ([13]; SNB-19, 10 μM): 91%
- Growth Percent ([13]; SNB-19, 1.00E-5 Molar): 8.82%
- GI50 ([13]; SNB-19, 5-dose): 8.1 µM
- TGI ([13]; SNB-19, 5-dose): 81.7 µM
- TGI ([13]; SNB-19, 5-dose, listed as D - 835857): 8.17E-5 Molar
- CC50 ([13]; SNB-19, 5-dose): < 100 µM
- GI50 [14, 20]: 1.36 µM
- CC50 [14, 20]: > 100 µM
- GI% ([14]; SNB-75, 10 μM): 84%
- Growth Percent ([14]; SNB-75, 1.00E-5 Molar): 15.71%
- GI50 ([14]; SNB-75, 5-dose): 1.4 µM
- TGI ([14]; SNB-75, 5-dose): 80.3 µM
- TGI ([14]; SNB-75, 5-dose, listed as D - 835857): 8.03E-5 Molar
- CC50 ([14]; SNB-75, 5-dose): < 100 µM
- CC50 [15]: > 100 µM

From PMC10035947, “Development of novel anilinoquinazoline-based carboxylic acids as non-classical carbonic anhydrase IX and XII inhibitors” (Journal of Enzyme Inhibition and Medicinal Chemistry, 2023)
